In patent publication US10221173B2, “Chemical compounds” (AstraZeneca AB, priority 2017, dated 2019):
In brackets after ≈: the same amount, converted by molar mass.

What was measured:
ER = ER (Homo sapiens (Human), UniProt P03372); conditions: 500 mg monthly dose; cited from earlier work
[1] = Log D (shake flask, 1-octanol/aqueous buffer); type: physicochemical; conditions: 1-octanol/aqueous buffer, pH 7.4, pH 7.4
[2] = target: T1, Estrogen Receptor (ERα) in MCF-7 cells (Homo sapiens (Human), UniProt P03372); assay: Western blotting assay, ER down-regulation in MCF-7; type: cell-based; conditions: MCF-7, 100 nM compound, 48 h, vs 100 nM fulvestrant
[3] = Human plasma protein binding (equilibrium dialysis); type: in vitro ADME
Method: The automated equilibrium dialysis assay in human plasma uses the RED (Rapid Equilibrium Dialysis) Device and sample handling. The assay generally runs over two to three days including delivery of results. After dialysis for 18 hours, plasma and buffer samples are prepared for analysis by liquid chromatography and mass spectrometry. Samples are generally tested in singlicates and quantified by LC/MSMS by using a 7-point calibration curve in plasma. The compounds are pooled together in plasma pools up to 10 compounds. Three reference compounds are used in each run, Propranolol, Metoprolol and Warfarin. Warfarin is used as a control in each pool and Propranolol and Metoprolol are placed randomly in each run. An in-house Excel macro is used for preparation of files for the robot and the mass spectrometer and is also used for the calculations of fraction unbound (fu %) in plasma.

hERG potassium channel = hERG potassium channel (Homo sapiens (Human), UniProt Q12809)
Method: The assay was conducted as follows with all reagents used at room temperature unless otherwise stated.
All compounds were acoustically dispensed in quadruplicate using a Labcyte Echo.
Calculation of results is performed using APC package within Genedata. For the routine normalization of well data with Neutral and Inhibitor control well groups as reference, GeneData Assay Analyzer uses the following equation to normalize the signal values to the desired signal range:
[formula] x is the measured raw signal value of a well is the median of the measured signal values for the Central Reference (Neutral) wells on a plate is the median of the measured signal values for the Scale Reference (Inhibitor) wells on a plate CR is the desired median normalized value for the Central Reference (Neutral) SR is the desired median normalized value for the Scale Reference (Inhibitor)

[4] = target: recombinant human Estrogen Receptor alpha ligand binding domain (ER alpha-LBD (GST)) (Homo sapiens (Human), UniProt P03372); assay: ERα binding assay (LanthaScreen TR-FRET competition)
Method: The ability of compounds to bind to isolated Estrogen Receptor Alpha Ligand binding domain (ER alpha—LBD (GST)) was assessed in competition assays using a LanthaScreen Time-Resolved Fluorescence Resonance Energy Transfer (TR-FRET) detection end-point. For the LanthaScreen TR-FRET endpoint, a suitable fluorophore (Fluormone ES2, ThermoFisher, Product code P2645) and recombinant human Estrogen Receptor alpha ligand binding domain, residues 307-554 (expressed and purified in-house) were used to measure compound binding. The assay principle is that ER alpha-LBD (GST) is added to a fluorescent ligand to form a receptor/fluorophore complex. A terbium-labelled anti-GST antibody (Product code PV3551) is used to indirectly label the receptor by binding to its GST tag, and competitive binding is detected by a test compound's ability to displace the fluorescent ligand, resulting in a loss of TR-FRET signal between the Tb-anti-GST antibody and the tracer. The assay was performed as follows with all reagent additions carried out using the Beckman Coulter BioRAPTR FRD microfluidic workstation: • 1. Acoustic dispense 120 nL of the test compound into a black low volume 384 well assay plates. • 2. Prepare 1× ER alpha-LBD/Tb-antiGST Ab in ES2 screening buffer and incubate for 15 minutes. • 3. […] Cover the assay plate to protect the reagents from light and evaporation, and incubate at room temperature for 4 hours. • 5. Excite at 337 nm and measure the fluorescent emission signal of each well at 490 nm and 520 nm using the BMG PheraSTAR.
TR-FRET dose response data obtained with each compound was exported into a suitable software package (such as Origin or Genedata) to perform curve fitting analysis. Competitive ER alpha binding was expressed as an IC50 value.

[5] = Thermodynamic solubility (shake-flask); type: physicochemical; conditions: aqueous phosphate buffer, 25 °C, pH 7.4, aqueous buffer, thermodynamic from solid, phosphate buffer pH 7.4, 24 hours
[6] = target: T1, Estrogen Receptor (ERα) in MCF-7 cells; assay: MCF-7 ER down-regulation assay (immuno-fluorescence); type: cell-based
[7] = target: estrogen receptor (ERα) in CAMA-1 cells (Homo sapiens (Human), UniProt P03372); assay: Western blotting assay, ER down-regulation in CAMA-1; type: cell-based; conditions: CAMA-1, 100 nM compound, 48 h, vs 100 nM fulvestrant
Sequence of estrogen receptor (ERα) in CAMA-1 cells (P03372 whole entry): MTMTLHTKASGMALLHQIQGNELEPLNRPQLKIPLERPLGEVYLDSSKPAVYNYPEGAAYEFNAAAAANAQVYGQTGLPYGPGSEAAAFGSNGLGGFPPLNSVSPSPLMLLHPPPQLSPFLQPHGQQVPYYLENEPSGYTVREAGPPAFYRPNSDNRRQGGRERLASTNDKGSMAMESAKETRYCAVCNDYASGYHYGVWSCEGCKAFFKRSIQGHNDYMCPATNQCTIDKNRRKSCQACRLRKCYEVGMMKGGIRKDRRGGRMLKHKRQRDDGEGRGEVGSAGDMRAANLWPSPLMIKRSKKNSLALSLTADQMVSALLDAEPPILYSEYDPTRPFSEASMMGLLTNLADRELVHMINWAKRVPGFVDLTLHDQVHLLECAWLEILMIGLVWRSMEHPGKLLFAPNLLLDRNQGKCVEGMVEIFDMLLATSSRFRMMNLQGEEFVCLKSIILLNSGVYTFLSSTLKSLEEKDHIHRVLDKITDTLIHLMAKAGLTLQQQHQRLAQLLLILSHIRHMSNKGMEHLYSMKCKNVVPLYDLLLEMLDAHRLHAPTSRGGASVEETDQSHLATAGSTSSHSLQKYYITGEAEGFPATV

Sequence of recombinant human Estrogen Receptor alpha ligand binding domain (ER alpha-LBD (GST)) (P03372 307-554): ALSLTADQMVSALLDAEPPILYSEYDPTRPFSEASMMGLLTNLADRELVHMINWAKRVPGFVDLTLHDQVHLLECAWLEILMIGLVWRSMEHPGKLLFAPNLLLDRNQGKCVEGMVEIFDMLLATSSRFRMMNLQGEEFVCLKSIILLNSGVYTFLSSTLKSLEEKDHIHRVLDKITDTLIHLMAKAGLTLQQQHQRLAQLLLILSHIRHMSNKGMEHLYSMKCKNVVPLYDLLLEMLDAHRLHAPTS
T1 sequence (P03372 whole entry): as the sequence (P03372 whole entry) above
Sequence of hERG potassium channel (Q12809 whole entry, the tested form may be a part): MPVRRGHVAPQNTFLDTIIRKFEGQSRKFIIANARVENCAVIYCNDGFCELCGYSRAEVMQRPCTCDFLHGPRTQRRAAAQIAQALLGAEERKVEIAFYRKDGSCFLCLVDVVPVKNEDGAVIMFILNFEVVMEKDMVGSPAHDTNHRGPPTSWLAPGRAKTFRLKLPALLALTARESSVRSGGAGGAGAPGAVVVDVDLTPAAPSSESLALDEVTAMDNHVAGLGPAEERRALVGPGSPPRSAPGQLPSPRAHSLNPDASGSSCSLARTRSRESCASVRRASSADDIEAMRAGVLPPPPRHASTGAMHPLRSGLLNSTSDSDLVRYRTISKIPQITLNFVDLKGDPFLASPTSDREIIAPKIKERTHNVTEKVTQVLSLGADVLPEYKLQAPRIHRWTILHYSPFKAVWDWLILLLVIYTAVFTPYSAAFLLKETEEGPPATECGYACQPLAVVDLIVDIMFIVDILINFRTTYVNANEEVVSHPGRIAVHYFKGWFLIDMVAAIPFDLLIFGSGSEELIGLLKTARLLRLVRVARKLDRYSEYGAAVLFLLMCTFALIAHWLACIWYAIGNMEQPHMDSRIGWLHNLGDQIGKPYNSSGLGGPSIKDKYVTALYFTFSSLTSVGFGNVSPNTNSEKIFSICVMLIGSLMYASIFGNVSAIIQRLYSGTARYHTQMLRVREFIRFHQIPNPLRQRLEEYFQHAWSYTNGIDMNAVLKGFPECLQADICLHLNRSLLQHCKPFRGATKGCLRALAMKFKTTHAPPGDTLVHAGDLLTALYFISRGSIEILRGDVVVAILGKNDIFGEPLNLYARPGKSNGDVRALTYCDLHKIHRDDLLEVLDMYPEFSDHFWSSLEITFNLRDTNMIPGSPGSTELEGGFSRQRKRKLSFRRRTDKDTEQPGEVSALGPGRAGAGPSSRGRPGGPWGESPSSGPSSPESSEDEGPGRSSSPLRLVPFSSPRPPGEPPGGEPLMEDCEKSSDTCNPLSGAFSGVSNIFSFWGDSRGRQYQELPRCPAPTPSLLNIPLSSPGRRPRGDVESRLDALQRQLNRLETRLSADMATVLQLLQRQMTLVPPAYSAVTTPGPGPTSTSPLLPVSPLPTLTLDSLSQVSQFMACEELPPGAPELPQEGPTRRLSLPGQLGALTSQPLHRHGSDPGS
Sequence of ER (P03372 whole entry): as the sequence (P03372 whole entry) above

SMILES | turnover of the receptor in patient samples (ER) | logD [1] | MCF7 Western % ER deg vs Fv [2] [%] | Human plasma protein binding (% free) [3] [% free] | IC50 (hERG potassium channel) [nM] | IC50 [4] [nM] | solubility at 24 h [5] [µM] | IC50 [6] [nM] | CAMA1 Western % ER deg vs Fv [7] [%]
C[C@]12CC[C@@H]3c4ccc(O)cc4C[C@@H](CCCCCCCCC[S+]([O-])CCCC(F)(F)C(F)(F)F)[C@H]3[C@@H]1CC[C@@H]2O (stereo partly drawn) [Fulvestrant] | less than 50% | – | – | – | – | – | – | – | –
C[C@@H]1Cc2c([nH]c3ccccc23)[C@@H](c2c(F)ccc(OCCNCCCF)c2F)N1CC1(F)COC1 [Example 13, N-(2-(2,4-difluoro-3-((1R,3R)-2-((3-fluorooxetan-3-yl)methyl)-3-methyl-2,3,4,9-tetrahydro-1H-pyrido[3,4-b]indol-1-yl)phenoxy)ethyl)-3-fluoropropan-1-amine] | – | 2.6 | 83 | 3.5 | 2600 | 1.6 | 493 (≈ 249 µg/mL) | 0.22 | 92
COc1ccc(OCCNCCCF)cc1[C@@H]1c2[nH]c3ccc(F)cc3c2C[C@@H](C)N1CC(F)(F)CO [Example 46, 2,2-difluoro-3-((1R,3R)-6-fluoro-1-(5-(2-((3-fluoropropyl)amino)ethoxy)-2-methoxyphenyl)-3-methyl-1,3,4,9-tetrahydro-2H-pyrido[3,4-b]indol-2-yl)propan-1-ol] | – | 2.8 | 83 | 2.4 | 2700 | 1 | 462 (≈ 242 µg/mL) | 0.22 | 89
C[C@@H]1Cc2c([nH]c3ccccc23)[C@@H](c2cc(OCCNCCCF)ccc2C#N)N1CC(F)(F)F [Example 23, 4-(2-((3-fluoropropyl)amino)ethoxy)-2-((1R,3R)-3-methyl-2-(2,2,2-trifluoroethyl)-2,3,4,9-tetrahydro-1H-pyrido[3,4-b]indol-1-yl)benzonitrile] | – | 3.4 | 95 | 3.7 | 5400 | 2.7 | 73 (≈ 35.7 µg/mL) | 0.5 | 95
C[C@@H]1Cc2c([nH]c3ccccc23)[C@@H](c2cc(OCCNCCCF)ccn2)N1CC(F)(F)F [Example 35, 3-fluoro-N-(2-((2-((1S,3R)-3-methyl-2-(2,2,2-trifluoroethyl)-2,3,4,9-tetrahydro-1H-pyrido[3,4-b]indol-1-yl)pyridin-4-yl)oxy)ethyl)propan-1-amine] | – | 3.1 | 94 | 5.4 | 5600 | 1.9 | 222 (≈ 103 µg/mL) | 1.1 | 92
C[C@@H]1Cc2c([nH]c3ccccc23)[C@@H](c2cc(OCCNCCCF)ccc2Cl)N1CC(F)(F)CO [Example 44, 3-((1R,3R)-1-(2-chloro-5-(2-((3-fluoropropyl)amino)ethoxy)phenyl)-3-methyl-1,3,4,9-tetrahydro-2H-pyrido[3,4-b]indol-2-yl)-2,2-difluoropropan-1-ol] | – | 3.3 | 95 | 2.3 | 2900 | 1 | 278 (≈ 142 µg/mL) | 0.14 | 94
COc1ccc(OCCNCCCF)cc1[C@@H]1c2[nH]c3ccccc3c2C[C@@H](C)N1CC(F)(F)F [Example 7, 3-Fluoro-N-(2-(4-methoxy-3-((1R,3R)-3-methyl-2-(2,2,2-trifluoroethyl)-2,3,4,9-tetrahydro-1H-pyrido[3,4-b]indol-1-yl)phenoxy)ethyl)propan-1-amine] | – | 3.7 | 100 | 1.5 | 3800 | 1.5 | 35 (≈ 17.3 µg/mL) | 0.12 | 90
C[C@@H]1Cc2c([nH]c3ccccc23)[C@@H](c2c(F)ccc(NCCNCCCF)c2F)N1CC(F)(F)F [Example 88, N1-(2,4-difluoro-3-((1R,3R)-3-methyl-2-(2,2,2-trifluoroethyl)-2,3,4,9-tetrahydro-1H-pyrido[3,4-b]indol-1-yl)phenyl)-N2-(3-fluoropropyl)ethane-1,2-diamine] | – | 3.4 | 90 | 0.58 | 4800 | 2.2 | 118 (≈ 58.8 µg/mL) | 0.28 | 93
